US20020192233A1, “Human T cell response to MHC-binding motif clusters” (priority 2000, published 2002)

How the values were obtained:
[1] = tested on: peripheral blood mononuclear cells from Mtb-immune (PPD skin-test positive) subjects; format: cell-based, human; settings: for % responders among Mtb-immune subjects: 40 Mtb-immune subjects; for Phil # responders (n = 38) / Phil % responders (n = 38): Philippines cohort; for Phil # responders (n = 38) / Phil % responders (n = 38) / Prov # responders (n = 22) / Prov % responders (n = 22): positive if SI≧2.0, peptide 1 and 10 μg/ml; for Prov # responders (n = 22) / Prov % responders (n = 22): Providence cohort
[2] = tested on: peripheral blood mononuclear cells from Mtb-naïve (PPD skin-test negative) subjects; experiment: Lymphoproliferation assay ([3H]thymidine, stimulation index), Mtb-naïve group; format: cell-based, human; settings: 19 Mtb-naïve controls; SI≧2.0

Sequence | % responders among Mtb-immune subjects ([1]; SI≧2.0) [%] | Phil # responders (n = 38) [1] | Phil % responders (n = 38) [1] [%] | Prov # responders (n = 22) [1] | Prov % responders (n = 22) [1] [%] | Mtb-naïve controls who responded [2] | number of Mtb-immune responders (proliferative response) ([1]; all 40 Mtb-immune subjects, SI≧2.0)
PLLNVGKLIANNTRVWVY (listed as Mycobacterium tuberculosis) [32-8, aa 193-210 of 32 kDa Mtb protein (Antigen 85A)] | 25 | 5 | 13 | 0 | 0 | none | 
FAYGSFVRTVSLPVGA (listed as Mycobacterium tuberculosis) [16-5, aa 92-107 of 16 kDa Mtb protein] | 28 | 4 | 10 | 7 | 18 | none | six
